Experimental data from PubChem BioAssay (NCI).
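Protocol summary: plate cells (96-well), add compound at 5 concentrations, incubate 48 h, interpolate endpoints linearly. TGI marks complete inhibition of growth.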

How the values were obtained:
Experiment in all cases: DTP human tumour cell line panel, 48 h
SK-OV-3 ovarian = test system: SK-OV-3 ovarian
RXF 393 renal = test system: RXF 393 renal
HCC-2998 colon = test system: HCC-2998 colon
SR leukemia = test system: SR leukemia
OVCAR-5 ovarian = test system: OVCAR-5 ovarian
SF-268 CNS = test system: SF-268 CNS
SNB-19 CNS = test system: SNB-19 CNS
IGROV1 ovarian = test system: IGROV1 ovarian
SK-MEL-5 melanoma = test system: SK-MEL-5 melanoma
NCI-H460 lung = test system: NCI-H460 lung
SK-MEL-28 melanoma = test system: SK-MEL-28 melanoma
HS 578T breast = test system: HS 578T breast
HCT-15 colon = test system: HCT-15 colon
HOP-92 NSCLC = test system: HOP-92 NSCLC
HT29 colon = test system: HT29 colon
UACC-257 melanoma = test system: UACC-257 melanoma
HOP-62 NSCLC = test system: HOP-62 NSCLC
MCF7 breast = test system: MCF7 breast
NCI/ADR-RES ovarian = test system: NCI/ADR-RES ovarian
A498 renal = test system: A498 renal
CCRF-CEM leukemia = test system: CCRF-CEM leukemia
EKVX NSCLC = test system: EKVX NSCLC
MDA-MB-435 = test system: MDA-MB-435
UACC-62 melanoma = test system: UACC-62 melanoma
HL-60(TB) leukemia = test system: HL-60(TB) leukemia
SF-295 CNS = test system: SF-295 CNS
KM12 colon = test system: KM12 colon
M14 melanoma = test system: M14 melanoma
SW-620 colon = test system: SW-620 colon
OVCAR-8 ovarian = test system: OVCAR-8 ovarian
SN12C renal = test system: SN12C renal
NCI-H522 lung = test system: NCI-H522 lung
RPMI-8226 leukemia = test system: RPMI-8226 leukemia
PC-3 prostate = test system: PC-3 prostate
LOX IMVI melanoma = test system: LOX IMVI melanoma
OVCAR-4 ovarian = test system: OVCAR-4 ovarian
SF-539 CNS = test system: SF-539 CNS
TK-10 renal = test system: TK-10 renal
DU-145 prostate = test system: DU-145 prostate
SNB-75 CNS = test system: SNB-75 CNS
786-0 renal = test system: 786-0 renal
NCI-H23 lung = test system: NCI-H23 lung
MDA-N = test system: MDA-N
SK-MEL-2 melanoma = test system: SK-MEL-2 melanoma
K-562 leukemia = test system: K-562 leukemia
T-47D breast = test system: T-47D breast
BT-549 breast = test system: BT-549 breast
OVCAR-3 ovarian = test system: OVCAR-3 ovarian
HCT-116 colon = test system: HCT-116 colon
NCI-H226 lung = test system: NCI-H226 lung
A549 NSCLC = test system: A549 NSCLC
ACHN renal = test system: ACHN renal
CAKI-1 renal = test system: CAKI-1 renal
UO-31 renal = test system: UO-31 renal
U251 CNS = test system: U251 CNS
MALME-3M melanoma = test system: MALME-3M melanoma
COLO 205 colon = test system: COLO 205 colon
MDA-MB-231 breast = test system: MDA-MB-231 breast
MOLT-4 leukemia = test system: MOLT-4 leukemia
SNB-78 CNS = test system: SNB-78 CNS
DLD-1 colon = test system: DLD-1 colon
DMS 114 small cell lung = test system: DMS 114 small cell lung
XF 498 CNS = test system: XF 498 CNS
HOP-18 NSCLC = test system: HOP-18 NSCLC
KM20L2 colon = test system: KM20L2 colon
M19-MEL melanoma = test system: M19-MEL melanoma
DMS 273 small cell lung = test system: DMS 273 small cell lung

COC(=O)NC1=Nc2ccccc2C(=O)NN1
TGI (SK-OV-3 ovarian): > 100 µM | TGI (RXF 393 renal): > 100 µM | TGI (HCC-2998 colon): > 100 µM | TGI (SR leukemia): > 100 µM | TGI (OVCAR-5 ovarian): > 100 µM | TGI (SF-268 CNS): > 100 µM | TGI (SNB-19 CNS): > 100 µM | TGI (IGROV1 ovarian): > 100 µM | TGI (SK-MEL-5 melanoma): > 100 µM | TGI (NCI-H460 lung): > 100 µM | TGI (SK-MEL-28 melanoma): > 100 µM | TGI (HS 578T breast): > 100 µM | TGI (HCT-15 colon): > 100 µM | TGI (HOP-92 NSCLC): > 100 µM | TGI (HT29 colon): > 100 µM | TGI (UACC-257 melanoma): > 100 µM | TGI (HOP-62 NSCLC): > 100 µM | TGI (MCF7 breast): > 100 µM | TGI (NCI/ADR-RES ovarian): > 100 µM | TGI (A498 renal): > 100 µM | TGI (CCRF-CEM leukemia): > 100 µM | TGI (EKVX NSCLC): > 100 µM | TGI (MDA-MB-435): > 100 µM | TGI (UACC-62 melanoma): > 100 µM | TGI (HL-60(TB) leukemia): > 100 µM | TGI (SF-295 CNS): > 100 µM | TGI (KM12 colon): > 100 µM | TGI (M14 melanoma): > 100 µM | TGI (SW-620 colon): > 100 µM | TGI (OVCAR-8 ovarian): > 100 µM | TGI (SN12C renal): > 100 µM | TGI (NCI-H522 lung): > 100 µM | TGI (RPMI-8226 leukemia): > 100 µM | TGI (PC-3 prostate): > 100 µM | TGI (LOX IMVI melanoma): > 100 µM | TGI (OVCAR-4 ovarian): > 100 µM | TGI (SF-539 CNS): > 100 µM | TGI (TK-10 renal): > 100 µM | TGI (DU-145 prostate): > 100 µM | TGI (SNB-75 CNS): > 100 µM | TGI (786-0 renal): > 100 µM | TGI (NCI-H23 lung): > 100 µM | TGI (MDA-N): > 100 µM | TGI (SK-MEL-2 melanoma): > 100 µM | TGI (K-562 leukemia): > 100 µM | TGI (T-47D breast): > 100 µM | TGI (BT-549 breast): > 100 µM | TGI (OVCAR-3 ovarian): > 100 µM | TGI (HCT-116 colon): > 100 µM | TGI (NCI-H226 lung): > 100 µM | TGI (A549 NSCLC): > 100 µM | TGI (ACHN renal): > 100 µM | TGI (CAKI-1 renal): > 100 µM | TGI (UO-31 renal): > 100 µM | TGI (U251 CNS): > 100 µM | TGI (MALME-3M melanoma): > 100 µM | TGI (COLO 205 colon): > 100 µM | TGI (MDA-MB-231 breast): > 100 µM | TGI (MOLT-4 leukemia): > 100 µM

Nc1nc(N)c(N=Nc2ccccc2)c(=O)[nH]1
TGI (SK-OV-3 ovarian): > 100 µM | TGI (SNB-78 CNS): 71.4 µM | TGI (HCC-2998 colon): > 100 µM | TGI (SR leukemia): > 100 µM | TGI (OVCAR-5 ovarian): > 100 µM | TGI (SF-268 CNS): > 100 µM | TGI (SNB-19 CNS): > 100 µM | TGI (IGROV1 ovarian): > 100 µM | TGI (SK-MEL-5 melanoma): > 100 µM | TGI (NCI-H460 lung): > 100 µM | TGI (SK-MEL-28 melanoma): 87.7 µM | TGI (HCT-15 colon): > 100 µM | TGI (DLD-1 colon): > 100 µM | TGI (HOP-92 NSCLC): > 100 µM | TGI (HT29 colon): > 100 µM | TGI (UACC-257 melanoma): > 100 µM | TGI (HOP-62 NSCLC): > 100 µM | TGI (A498 renal): > 100 µM | TGI (CCRF-CEM leukemia): > 100 µM | TGI (UACC-62 melanoma): 69.7 µM | TGI (HL-60(TB) leukemia): > 100 µM | TGI (SF-295 CNS): > 100 µM | TGI (KM12 colon): > 100 µM | TGI (M14 melanoma): > 100 µM | TGI (DMS 114 small cell lung): 71.2 µM | TGI (SW-620 colon): > 100 µM | TGI (XF 498 CNS): > 100 µM | TGI (OVCAR-8 ovarian): > 100 µM | TGI (SN12C renal): > 100 µM | TGI (NCI-H522 lung): > 100 µM | TGI (RPMI-8226 leukemia): > 100 µM | TGI (LOX IMVI melanoma): > 100 µM | TGI (OVCAR-4 ovarian): > 100 µM | TGI (SF-539 CNS): > 100 µM | TGI (TK-10 renal): > 100 µM | TGI (HOP-18 NSCLC): > 100 µM | TGI (SNB-75 CNS): 23.7 µM | TGI (786-0 renal): > 100 µM | TGI (KM20L2 colon): > 100 µM | TGI (NCI-H23 lung): 93 µM | TGI (M19-MEL melanoma): > 100 µM | TGI (SK-MEL-2 melanoma): > 100 µM | TGI (K-562 leukemia): > 100 µM | TGI (OVCAR-3 ovarian): > 100 µM | TGI (DMS 273 small cell lung): > 100 µM | TGI (HCT-116 colon): > 100 µM | TGI (NCI-H226 lung): > 100 µM | TGI (A549 NSCLC): > 100 µM | TGI (ACHN renal): 96.7 µM | TGI (CAKI-1 renal): > 100 µM | TGI (UO-31 renal): > 100 µM | TGI (U251 CNS): > 100 µM | TGI (MALME-3M melanoma): 69.6 µM | TGI (COLO 205 colon): > 100 µM | TGI (MOLT-4 leukemia): > 100 µM
